What follows are compounds tested against T1, human GPR119 (Homo sapiens, UniProt Q8TDV5) (assay: AlphaScreen cAMP assay in Min-6/hGPR119 cells (activation of GPR119, stimulation of intracellular cAMP)). Settings: MIN6 cells stably transfected with human GPR119; 45 min incubation at room temperature; cAMP by AlphaScreen.
T1 construct: expressed in transfected cells
T1 sequence (Q8TDV5 1-335): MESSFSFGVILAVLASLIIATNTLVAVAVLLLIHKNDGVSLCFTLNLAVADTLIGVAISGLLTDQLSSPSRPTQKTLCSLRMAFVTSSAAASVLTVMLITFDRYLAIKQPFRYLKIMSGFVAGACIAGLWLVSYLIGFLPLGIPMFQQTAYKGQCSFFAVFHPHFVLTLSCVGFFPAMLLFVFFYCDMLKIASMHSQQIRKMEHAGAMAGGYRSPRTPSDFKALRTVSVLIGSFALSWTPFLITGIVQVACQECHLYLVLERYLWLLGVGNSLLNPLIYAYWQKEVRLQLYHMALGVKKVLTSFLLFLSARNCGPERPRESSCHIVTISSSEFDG
Assay type: cell-based
Method: The compounds of formula I according to the invention modulate the activity of the G-protein-coupled receptor GPR119. The effect of the compounds on the activation of GPR119 and on the stimulation of intracellular cAMP concentration is determined using the AlphaScreen cAMP Assay Kit (Cat. No. #6760625R) made by PerkinElmer.
MIN6 cells [Miyazaki J et al., Endocrinology. 1990 July; 127(1):126-32] are stably transfected with an expression vector for human GPR119 cDNA (Acc. No. NP_848566). Min-6/hGPR119 cells are cultured in DMEM, 10% FBS, 50 μM β-mercaptoethanol, 0.3 mg/mL Geniticin, 2 mM GlutaMAX at 37° C., 5% CO2. For the assay, the cells are seeded in Optiplates (white, 384-well, 160W-barcoded, TC, sterile with lid, Cat. No. #6007688 (Perkin Elmer); 10000 cells/well; 50 μL). The plates covered with lids are then incubated for 24 hours at 37° C., 5% CO2. After the medium is aspirated from the wells completely, 10 μl of the test compound are added, the compounds are diluted using stimulating buffer (140 mM NaCl, 3.6 mM KCl, 0.5 mM NaH2PO4, 0.5 mM MgSO4, 1.5 mM CaCl2, 10 mM Hepes, 5 mM NaHCO3; pH 7.4. 0.5 mM IBMX and 0.1% BSA, the final DMSO concentration is 1%). After 45 minutes incubation at room temperature (approx. 20° C.), the cAMP concentrations are determined using the AlphaScreen cAMP Assay Kit (Cat. No. #6760625R from PerkinElmer).

Row | EC50 [nM] | Compound
1 | 281 | CC(C)(C)OC(=O)N1CCC(c2cc3cc(-c4ccc(C#N)cc4F)ncc3o2)CC1 [Example 8, 4-[5-(4-Cyano-2-fluoro-phenyl)-furo[2,3-c]pyridin-2-yl]-piperidine-1-carboxylic acid tert-butyl ester]
2 | 18 | CS(=O)(=O)N1CC=C(c2cc3cc(C4CCN(c5nnc(C(F)(F)F)s5)CC4)oc3cn2)CC1 [Example 26, 5-(1-Methanesulfonyl-1,2,3,6-tetrahydro-pyridin-4-yl)-2-[1-(5-trifluoromethyl-[1,3,4]thiadiazol-2-yl)-piperidin-4-yl]-furo[2,3-c]pyridine]
3 | 64 | CCc1cnc(N2CCC(c3cc4cc(-c5ccc(S(C)(=O)=O)cc5F)ncc4o3)CC2)nc1 [Example 16, 2-[1-(5-Ethyl-pyrimidin-2-yl)-piperidin-4-yl]-5-(2-fluoro-4-methanesulfonyl-phenyl)-furo[2,3-c]pyridine]
4 | 233 | CC(C)(C)OC(=O)N1CCC(c2cc3cc(-c4ccncc4F)ncc3o2)CC1 [Example 15, 4-[5-(3-Fluoro-pyridin-4-yl)-furo[2,3-c]pyridin-2-yl]-piperidine-1-carboxylic acid tert-butyl ester]
5 | 567 | CC(C)(C)OC(=O)N1CCC(c2cc3cc(-c4ccc(C(=O)OCc5ccccc5)cc4)ncc3o2)CC1 [Example 9, 4-[5-(4-Benzyloxycarbonyl-phenyl)-furo[2,3-c]pyridin-2-yl]-piperidine-1-carboxylic acid tert-butyl ester]
6 | 108 | CC(C)(C)OC(=O)N1CCC(c2cc3cc(-c4ccc(C(N)=O)cc4F)ncc3o2)CC1 [Example 7, 4-[5-(2-Fluoro-4-aminocarbonyl-phenyl)-furo[2,3-c]pyridin-2-yl]-piperidine-1-carboxylic acid tert-butyl ester]
7 | 13 | CC1(OC(=O)N2CCC(c3cc4cc(-c5ccc(S(C)(=O)=O)cc5F)ncc4o3)CC2)CC1 [Example 20, 4-[5-(2-Fluoro-4-methanesulfonyl-phenyl)-furo[2,3-c]pyridin-2-yl]-piperidine-1-carboxylic acid 1-methyl-cyclopropyl ester]
8 | 310 | CC(C)(C)OC(=O)N1CCC(c2cc3cc(-c4ccncc4)ncc3o2)CC1 [Example 11, 4-(5-Pyridin-4-yl-furo[2,3-c]pyridin-2-yl)-piperidine-1-carboxylic acid tert-butyl ester]
9 | 592 | CC(C)(C)OC(=O)N1CCC(c2cc3cc(-c4cnco4)ncc3o2)CC1 [Example 10, 4-(5-Oxazol-5-yl-furo[2,3-c]pyridin-2-yl)-piperidine-1-carboxylic acid tert-butyl ester]
10 | 58 | CC(C)(C)OC(=O)N1CCC(c2cc3cc(-c4ccc(S(C)(=O)=O)cc4)ncc3o2)CC1 [Example 1, 4-[5-(4-Methanesulfonyl-phenyl)-furo[2,3-c]pyridin-2-yl]-piperidine-1-carboxylic acid tert-butyl ester]
11 | 62 | CC(C)(C)OC(=O)N1CCC(c2cc3cc(-c4ccc(S(C)(=O)=O)c(F)c4)ncc3o2)CC1 [Example 2, 4-[5-(3-Fluoro-4-methanesulfonyl-phenyl)-furo[2,3-c]pyridin-2-yl]-piperidine-1-carboxylic acid tert-butyl ester]
12 | 82 | CC(C)(C)OC(=O)N1CCC(c2cc3cc(N4CCN(S(C)(=O)=O)CC4)ncc3o2)CC1 [Example 13, 4-[5-(4-Methanesulfonyl-piperazin-1-yl)-furo[2,3-c]pyridin-2-yl]-piperidine-1-carboxylic acid tert-butyl ester]
13 | 12 | CC(C)OC(=O)N1CCC(c2cc3cc(-c4ccc(S(C)(=O)=O)cc4F)ncc3o2)CC1 [Example 19, 4-[5-(2-Fluoro-4-methanesulfonyl-phenyl)-furo[2,3-c]pyridin-2-yl]-piperidine-1-carboxylic acid isopropyl ester]
14 | 51 | CS(=O)(=O)c1ccc(-c2cc3cc(C4CCN(CC5(C(F)(F)F)CC5)CC4)oc3cn2)c(F)c1 [Example 17, 5-(2-Fluoro-4-methanesulfonyl-phenyl)-2-[1-(1-trifluoromethyl-cyclopropylmethyl)-piperidin-4-yl]-furo[2,3-c]pyridine]
15 | 73 | CC(C)(C)OC(=O)N1CCC(C)(c2cc3cc(C4=CCN(S(C)(=O)=O)CC4)ncc3o2)CC1 [Example 28, 4-[5-(1-Methanesulfonyl-1,2,3,6-tetrahydro-pyridin-4-yl)-furo[2,3-c]pyridin-2-yl]-4-methyl-piperidine-1-carboxylic acid tert-butyl ester]
16 | 121 | CC(C)(C)OC(=O)N1CCC(c2cc3cc(-c4ccc(NS(C)(=O)=O)cc4)ncc3o2)CC1 [Example 4, 4-[5-(4-Methanesulfonylamino-phenyl)-furo[2,3-c]pyridin-2-yl]-piperidine-1-carboxylic acid tert-butyl ester]
17 | 86 | CS(=O)(=O)N1CC=C(c2cc3cc(C4CCN(c5ccc(C(F)(F)F)cn5)CC4)oc3cn2)CC1 [Example 23, 4-[5-(1-Methanesulfonyl-1,2,3,6-tetrahydro-pyridin-4-yl)-furo[2,3-c]pyridin-2-yl]-5′-trifluoromethyl-3,4,5,6-tetrahydro-2H-[1,2′]bipyridinyl]
18 | 10 | CC1(OC(=O)N2CCC(c3cc4cc(C5=CCN(S(C)(=O)=O)CC5)ncc4o3)CC2)CC1 [Example 22, 4-[5-(1-Methanesulfonyl-1,2,3,6-tetrahydro-pyridin-4-yl)-furo[2,3-c]pyridin-2-yl]-piperidine-1-carboxylic acid 1-methyl-cyclopropyl ester]
19 | 9 | CC(C)(C)OC(=O)N1CCC(c2cc3cc(C4=CCN(S(C)(=O)=O)CC4)ncc3o2)CC1 [Example 14, 4-[5-(1-Methanesulfonyl-1,2,3,6-tetrahydro-pyridin-4-yl)-furo[2,3-c]pyridin-2-yl]-piperidine-1-carboxylic acid tert-butyl ester]
20 | 263 | CC(C)(C)OC(=O)N1CCC(c2cc3cc(-c4ccc(C#N)c(F)c4)ncc3o2)CC1 [Example 5, 4-[5-(4-Cyano-3-fluoro-phenyl)-furo[2,3-c]pyridin-2-yl]-piperidine-1-carboxylic acid tert-butyl ester]
21 | 9 | CC(C)(C)OC(=O)N1CCC(c2cc3cc(-c4ccc(S(C)(=O)=O)cc4F)ncc3o2)CC1 [Example 3, 4-[5-(2-Fluoro-4-methanesulfonyl-phenyl)-furo[2,3-c]pyridin-2-yl]-piperidine-1-carboxylic acid tert-butyl ester]
22 | 41 | CS(=O)(=O)N1CC=C(c2cc3cc(C4CCN(c5ncc(Cl)cn5)CC4)oc3cn2)CC1 [Example 25, 2-[1-(5-Chloro-pyrimidin-2-yl)-piperidin-4-yl]-5-(1-methanesulfonyl-1,2,3,6-tetrahydro-pyridin-4-yl)-furo[2,3-c]pyridine]
23 | 79 | CC(C)(F)CN1CCC(c2cc3cc(-c4ccc(S(C)(=O)=O)cc4F)ncc3o2)CC1 [Example 18, 5-(2-Fluoro-4-methanesulfonyl-phenyl)-2-[1-(2-fluoro-2-methyl-propyl)-piperidin-4-yl]-furo[2,3-c]pyridine]
24 | 140 | CC(C)(C)OC(=O)N1CCC(C)(c2cc3cc(-c4ccc(S(C)(=O)=O)cc4)ncc3o2)CC1 [Example 27, 4-[5-(4-Methanesulfonyl-phenyl)-furo[2,3-c]pyridin-2-yl]-4-methyl-piperidine-1-carboxylic acid tert-butyl ester]
25 | 105 | CC(C)(C)OC(=O)N1CCC(c2cc3cc(-c4ccc(CS(C)(=O)=O)cc4)ncc3o2)CC1 [Example 12, 4-[5-(4-Methanesulfonylmethyl-phenyl)-furo[2,3-c]pyridin-2-yl]-piperidine-1-carboxylic acid tert-butyl ester]
26 | 19 | CC(C)OC(=O)N1CCC(c2cc3cc(C4=CCN(S(C)(=O)=O)CC4)ncc3o2)CC1 [Example 21, 4-[5-(1-Methanesulfonyl-1,2,3,6-tetrahydro-pyridin-4-yl)-furo[2,3-c]pyridin-2-yl]-piperidine-1-carboxylic acid isopropyl ester]
27 | 45 | CCNC(=O)c1ccc(-c2cc3cc(C4CCN(C(=O)OC(C)(C)C)CC4)oc3cn2)cc1 [Example 6, 4-[5-(4-Ethylcarbamoyl-phenyl)-furo[2,3-c]pyridin-2-yl]-piperidine-1-carboxylic acid tert-butyl ester]
28 | 28 | CS(=O)(=O)N1CC=C(c2cc3cc(C4CCN(CC5(C(F)(F)F)CC5)CC4)oc3cn2)CC1 [Example 24, 5-(1-Methanesulfonyl-1,2,3,6-tetrahydro-pyridin-4-yl)-2-[1-(1-trifluoromethyl-cyclopropylmethyl)-piperidin-4-yl]-furo[2,3-c]pyridine]

From patent publication US9012456B2, “Compounds, pharmaceutical compositions and uses thereof” (Boehringer Ingelheim International GmbH, priority 2012, dated 2015)
